Reference: ChEMBL document CHEMBL3826963, “Pharmacological protection of mitochondrial function mitigates acute limb ischemia/reperfusion injury” (Bioorg Med Chem Lett, 2016)
Calls of active or inactive are those of the source. No cut-off for these calls is given here. Where a SMILES comes first, the peptide text is derived from it.

What was measured:
Rattus norvegicus [1] = assay: Antithrombotic activity in Wistar rat model of thread-induced arterial thrombosis assessed as thrombus weight at 5 umol/kg measured after 2 to 3 hrs (reference value: 42.1 +/- 3.2 mg)
Mus musculus = assay: Anti-inflammatory activity in ICR mouse assessed as inhibition of xylene-induced ear edema at 1 umol/kg, po pretreated for 30 mins followed by xylene administration measured after 2 hrs relative to control; format: functional
Rattus norvegicus [2] = assay: (§1) Anti-inflammatory activity in Wistar rat model of tourniquet-induced limb ischemia/reperfusion injury assessed as serum TNF-alpha level at 20 mg/kg, ip dosed 15 mins before and after 3 hrs of ischemia followed by 20 mg/kg, ip compound treatment for 1 hr before and after 4 hrs of reperfusion by ELISA (reference value: 185.1 +/- 23.5 pg/ml); format: functional
Rattus norvegicus [3] = assay: as §1, with “IL-6” for “TNF-alpha”, “580.3” for “185.1”, “95.2” for “23.5”; format: functional
Rattus norvegicus [4] = assay: (§2) Protection against Wistar rat model of tourniquet-induced limb ischemia/reperfusion injury-induced oxidative stress assessed as skeletal muscle SOD activity per mg protein at 20 mg/kg, ip dosed 15 mins before and after 3 hrs of ischemia followed by 20 mg/kg, ip compound treatment for 1 hr before and after 4 hrs of reperfusion (reference value: 0.41 +/- 0.09 U); format: functional
PC-12 [5] = assay: Antioxidant activity in rat PC12 cells assessed as scavenging of hypoxanthine/xanthine oxidase-induced O2 radical by measuring increase in cell survival at 12.5 to 200 uM preincubated for 1 hr followed by hypoxanthine/xanthine oxidase addition by MTT assay; format: functional, cell-based
Rattus norvegicus [6] = assay: as §2, with “GSH level” for “SOD activity per mg protein”, “0.82” for “0.41”, “0.19 umol/g)” for “0.09 U)”; format: functional
Rattus norvegicus [7] = assay: as §2, with “CAT” for “SOD”, “25.64” for “0.41”, “5.29” for “0.09”; format: functional
PC-12 [8] = assay: Antioxidant activity in rat PC12 cells assessed as scavenging of H2O2/Fe2+ ion-induced hydroxyl radical by measuring increase in cell survival at 12.5 to 200 uM preincubated for 1 hr followed by H2O2/Fe2+ ion addition measured after 1 hr by MTT assay; format: functional, cell-based
PC-12 [9] = assay: Antioxidant activity in rat PC12 cells assessed as scavenging of SNAP-induced NO radical by measuring increase in cell survival at 12.5 to 200 uM preincubated for 1 hr followed by SNAP addition measured after 2 hrs by MTT assay; format: functional, cell-based
Rattus norvegicus [10] = assay: as §2, with “MDA level” for “SOD activity per mg protein”, “45.78” for “0.41”, “4.33 nmol/g)” for “0.09 U)”; format: functional

Question: With `CC(=O)Oc1ccccc1C(=O)O` [ASPIRIN] as the compound, how does the Activity (Rattus norvegicus [1]) read?
Answer: 28.5 mg

Question: And the inhibition in vivo at 1 µmol/kg (Mus musculus)?
Answer: 50.3%

Question: Which results are given for `COc1cc(/C=C/C(=O)CC(=O)/C=C/c2ccc(OCC(=O)N[C@@H](CCCCN)C(=O)O)c(OC)c2)ccc1O`?
Answer: Activity (Rattus norvegicus [1]): 34.5 mg; inhibition in vivo at 1 µmol/kg (Mus musculus): 41.1%

Question: `COc1ccc(/C=C/C(=O)CC(=O)/C=C/c2ccc(OCC(=O)N[C@@H](CCCCN)C(=O)O)c(OC)c2)cc1OC` was tested. Which Activity (Rattus norvegicus [1]) did it give?
Answer: 38.3 mg

Question: What about the inhibition in vivo at 1 µmol/kg (Mus musculus) of the same compound?
Answer: 39.3%

Question: How did the Activity (Rattus norvegicus [1]) turn out when `C[C@H](NC(=O)[C@@H]1CCCN1)C(=O)N[C@@H](CCCCN)C(=O)O` (H-Pro-Ala-Lys-OH) was run?
Answer: 32.8 mg

Question: With `COC(=O)COc1ccc(/C=C/C(=O)CC(=O)/C=C/c2ccc(OC)c(OC)c2)cc1OC` as the compound, how does the Activity (Rattus norvegicus [1]) read?
Answer: 40.1 mg

Question: What about the Activity (Rattus norvegicus [2]) of the same compound?
Answer: 160.7 pg/mL

Question: And the Activity (Rattus norvegicus [3])?
Answer: 472.5 pg/mL

Question: What about the Activity (Rattus norvegicus [4]) of the same compound?
Answer: 0.58 U/mg

Question: What about the Activity (PC-12 [5]) of the same compound?
Answer: inactive

Question: What about the Activity (Rattus norvegicus [6]) of the same compound?
Answer: 1.55 µmol/g

Question: What about the Activity (Rattus norvegicus [7]) of the same compound?
Answer: 42.4 U/mg

Question: And the inhibition in vivo at 1 µmol/kg (Mus musculus)?
Answer: 25.1%

Question: And the Activity (PC-12 [8])?
Answer: Active

Question: And the Activity (PC-12 [9])?
Answer: inactive

Question: And the Activity (Rattus norvegicus [10])?
Answer: 30.12 nmol/g

Question: How did the Activity (Rattus norvegicus [1]) turn out when `COC(=O)COc1ccc(/C=C/C(=O)CC(=O)/C=C/c2ccc(O)c(OC)c2)cc1OC` was run?
Answer: 39.7 mg

Question: What about the Activity (Rattus norvegicus [2]) of the same compound?
Answer: 155.4 pg/mL

Question: And the Activity (Rattus norvegicus [3])?
Answer: 450.8 pg/mL

Question: And the Activity (Rattus norvegicus [4])?
Answer: 0.64 U/mg

Question: And the Activity (PC-12 [5])?
Answer: inactive

Question: What about the Activity (Rattus norvegicus [6]) of the same compound?
Answer: 1.41 µmol/g

Question: And the Activity (Rattus norvegicus [7])?
Answer: 44.6 U/mg

Question: What about the inhibition in vivo at 1 µmol/kg (Mus musculus) of the same compound?
Answer: 23.3%

Question: And the Activity (PC-12 [8])?
Answer: Active

Question: And the Activity (PC-12 [9])?
Answer: inactive

Question: And the Activity (Rattus norvegicus [10])?
Answer: 32.47 nmol/g
